Assays:
[1] = tested on: IMR-32 Neuroblastoma cells; test: Erastin-induced ferroptosis in IMR-32 neuroblastoma cells (Sytox Green cell death readout); format: cell-based; details: Homo sapiens; IMR-32 cells, 10 μM erastin, compounds 1 nM to 1 μM, triplicate; read-out: IC50, antiferroptotic activity in response to erastin-induced ferroptosis
Method: In the present invention the potency of a compound inhibiting (or reducing) ferroptosis and/or oxytosis are determined in in vitro or in vivo assays. Typically in vitro assays are used to measure the potency of a candidate compound. Examples of suitable in vitro assays are cellular assays. One non-limiting example of an assay involves the use of the IMR-32 neuroblastoma cell line. The latter is stimulated to enter into ferroptosis upon stimulation with 10 μM erastin, a documented ferroptosis inducer (see for example Dixon et al (2012) Cell 149, 1060-1072 and ferroptosis inhibitors are evaluated for the prevention of erastin induced ferroptosis. Yet another assay is based the glutamate-induced cell death in the hippocampal cell line HT22 and ferroptosis/oxytosis inhibitors are evaluated for the prevention of cell death (see Henke N. et al (2013) Cell Death and Disease 4, e470). Still another assay is based on the sorafinib induced cell death (described to be iron dependent cell death) in hepatocellular carcinoma cells and ferroptosis inhibitors are evaluated for the prevention of cell death (see Louandre C. et al (2013) Int. J. Cancer 133, 1732). The calculated potency of a compound inhibiting ferroptosis and/or oxytosis is typically depicted as an IC50 value. Examples of suitable in vivo assays are typically pre-clinical disease models of for example mice for the diseases benefiting the application of ferroptosis and/or oxytosis inhibitors, as described herein. One non-limiting example of an in vivo assay is based on inducing liver damage in mice by administering the herbicide diquat dibromide monohydrate and ferroptosis inhibitors are evaluated based on reduced levels of liver transaminases in serum (see Ran Q et al (2004) J. Biol. Chem. 279, 53, 55137).
The IC50 values for the individual compounds of the invention were determined in the neuroblastoma, IMR-32 cell line. In brief, IMR-32 cells were subjected to 10 μM erastin, the latter compound is known to induce ferroptosis. A concentration gradient (ranging from 1 nM to 1 μM) of the compounds was applied to the cells. These experiments were performed in a 96-well format (in triplicate), and cell death was analyzed in a fluorescent plate reader by use of a fluorescent cell death dye (1.5 μM Sytox Green). The IC50 values depicted in Table 1 are the concentration values for the individual compounds which are able to overcome ferroptosis.

[2] = Kinetic solubility (turbidimetric method); format: physicochemical; details: 10 mM PBS pH 7.4, 2% DMSO, test range 3.125-200 μM, 2 h at 37° C.
Method: A turbidimetric method was used. First a series of DMSO compound stock solutions was prepared ([…]). An aliquot of 4 μL stock solution was added to 196 μL PBS buffer (pH 7.4). A series of concentrations were prepared (3.13-200 μM), including a blank on a microtiter plate. (2% DMSO-D6) The microtiter plate was shaken for 10 seconds and incubated for 2 hours at 37° C. When there was no turbidity measured at a given concentration the sample was assumed to be dissolved.

[3] = Pharmacokinetics and tissue distribution after single-dose iv injection in mice; format: in vivo; details: iv ~10 mg/kg; for Tissue distribution profile, levels in organs: 24 h after injection; for Crossing of the blood-brain barrier: brain tissue (FIG. 4), 10 mg/kg
Method: FIG. 4: Tissue distribution of ferrostatin-analogues. Equimolar amounts of Ferrostatin (Fer-1), compound 39 (depicted as UAMC-3203) and compound 38 (depicted as UAMC-3206) (˜10 mg/kg) were injected intravenously 2 h (left panel) or 24 h (right panel) before tissue collection (heart, liver, lung, muscle, kidney and brain). Tissues were collected, snap frozen in liquid nitrogen, homogenized and stored at −80° C. until analysis. The tissue samples for LC-MS were further processed by protein precipitation by diluting 20 μL of the homogenate with 80 μL ACN containing IS (tolbutamide). After centrifugation, the supernatant was further diluted in the appropriate solvent.
The detected levels of UAMC-3203 vary between 3-60 ng/mg tissue depending on the organ, which is up to […] or 6-fold higher than the dose injected.

[4] = Plasma stability, mouse plasma; format: in vitro ADME; details: 37° C., remaining parent compound, read-out: Plasma stability (% recovery after 6 h), Mouse
Method: 5 μl of a 10 mM stock solution of the compound in DMSO was added to 995 μl of plasma to obtain a 50 μM final solution. The mixture was gently shaken for 6 h at 37° C. Aliquots of 100 μl were taken at various time points (0, 0.5 h, 1 h, 2 h, 3 h and 6 h) and diluted with 400 μl of cold methanol (stored at 4° C.). The suspension was centrifuged at 14000 rpm for 5 min. 50 μl of the supernatant was diluted with 950 μl of methanol and analysed with LC/MS/MS. The samples were analysed in triplicate. The experiment was done in duplicate. […] Enalapril maleate was used as a control in mice, rats, and in human.

[5] = Microsomal (metabolic) stability, mouse liver microsomes; details: pH 7.4
From the text: By using the measured microsomal in vitro t1/2, a calculated value for the intrinsic clearance Clint can be determined. This value states the measure in which a drug that is not bound to plasma proteins is irreversibly removed from the body by the liver. This value is expressed in mL/min/kg which can be interpreted as the volume of blood in mL that is cleared of a drug per minute per kilogram of body weight. The CLint is less sensitive to used variables in ADME assays since the amount of microsomal protein and the volume of the incubation are all taken into account. (Sohlenius-Sternbeck et al., Xenobiotica, 2012, 42, 841-853)
Liver microsomes (20 mg protein/ml), NADPH regenerating system solutions A & B and 5 mM stock compound solution (100% DMSO) are prepared. The reaction mixture finally contains 713 μL purified water, 200 μL 0.5 M potassium phosphate pH 7.4, 50 μL NADPH regenerating system solution A (BD Biosciences Cat. No. 451220), 10 μL NADPH regenerating system solution B (BD Biosciences Cat. No. 451200) and 2 μL of the compound stock solution (10 μM final concentration). The reaction mixture is warmed to 37° C. for 5 minutes in a water bath and the reaction is initiated by addition of 25 μL of liver microsomes (0.5 mg protein/ml final concentration). At different time points (0 min-15 min-30 min-60 min-120 min-240 min-360 min-24 h), 20 μL is withdrawn and 80 μL cold acetonitrile is added on ice for 10 minutes. Then the mixtures are centrifuged at 13 000 rpm for 5 min at 4° C. The supernatant is further diluted in 90% water/MeCN (1/25) to fall within the range of the LC/MS/MS analysis. At each time point, the compound is analysed using LC/MS/MS with the same UPLC system as described above. A standard curve of six points was made to fit the measured concentrations. Verapamil was used as a positive control.
All obtained readouts were processed using Microsoft Excel. In order to determine the microsomal half-life t1/2 of the compounds, the rate constant k was determined by plotting the exponential decay graphs using GraFit. Microsomal t1/2 was determined using the following formula: […]

Row | SMILES | IC50 [1] | Solubility (kinetic) [2] | Tissue distribution profile, levels in organs [3] | recovery at 6 h, 50 μM [4] | CLint scaled at 10 µM ([5]; liver microsomes) | half-life at 10 µM ([5]; liver microsomes) | half-life at 10 µM ([5]; microsomes) | Tissue distribution profile compared to -3206 and benchmark Fer-1 ([3]; 2 h after injection) | Crossing of the blood-brain barrier ([3]; Hydrochloride) | Crossing of the blood-brain barrier ([3]; listed as UAMC-3203, Hydrochloride) | concentration at 2 h ([3]; mouse, tissues (heart, liver, lung, muscle, kidney, brain), 2 h after injection, read-out: Detected levels in tissue depending on the organ)
1 | CNCCNS(=O)(=O)c1ccc(NC2CCCCC2)c(NCc2ccccc2)c1.Cl [Compound 37, 3-(benzylamino)-4-(cyclohexylamino)-N-(2-(methylamino)ethyl)benzenesulfonamide Hydrochloride] | 3 nM | >200 µM | not detected in any organ | 100% | 139 ± 6.2 mL/min/kg | 0.45 ± 0.02 h |  |  |  |  | 
2 | Cl.NCCNS(=O)(=O)c1ccc(NC2CCCCC2)c(NCc2ccccc2)c1 [Compound 38, N-(2-aminoethyl)-3-(benzylamino)-4-(cyclohexylamino)benzenesulfonamide Hydrochloride] | 12 nM | >200 µM | detected in very low levels | 100% | 4.8 ± 1.5 mL/min/kg |  | 13 h |  |  |  | 
3 | Cl.O=S(=O)(NCCN1CCNCC1)c1ccc(NC2CCCCC2)c(NCc2ccccc2)c1 [Compound 39, 3-(benzylamino)-4-(cyclohexylamino)-N-(2-(piperazin-1-yl)ethyl)benzenesulfonamide Hydrochloride] | 10 nM | >200 µM | still present in range of 2- to 100-fold less than the dose injected | 100% | 18 ± 7.1 mL/min/kg |  | 3.46 h | superior profile | efficiently crosses the blood brain barrier | seems to cross the blood-brain barrier | 3000 to 60000 ng/g

Reference: patent publication US11339124B2, “3-(benzylamino)-4-(cyclohexylamino)-n-(2-(piperazin-1-yl)ethyl)benzenesulfonamide derivatives and related ferrostatin-1 analogues as cell death inhibitors for treating e.g. stroke” (VIB VZW, priority 2018, dated 2022)
